Test results from patent US20260373193A1, “CARCINOGENESIS REDUCTION WITH PENTAAZA MACROCYLIC RING COMPLEX” (GALERA LABS, LLC, priority 2023, published 2026).
“Also recorded” adds a separate entry of the source.

Legend:
female BALB/c mice = assay: long-term survival of irradiated and unirradiated mice treated or not with GC4419; type: in vivo, mouse (female BALB/c)
Description: (§1) All animal studies conducted used female BALB/c mice irradiated at 77-91 days of age and housed for a lifetime study to determine rates of carcinogenesis and survival. Animals were purchased from Charles River Laboratory, shipped to Brookhaven National Laboratory, and irradiated with the doses and ion species described below.
(§2) Animals were treated or not with GC4419. Those animals treated with GC4419 followed the following strategy. GC4419 was delivered at a dose of 24 mg/kg (mice were weighed prior to drug delivery) interperitoneally (i.p.) at roughly 45-60 minutes prior to radiation exposure. GC4419 was then provided i.p. for the next 6 days, and the animals were shipped to UT Southwestern (UTSW) Medical Center for temporary quarantine before returning to the animal facility. Upon return to UTSW the animals were treated with GC4419 i.p. weekly for another 11 weeks for a total of 12 weeks on treatment.
(§3) Radiation exposures were whole body. The galactic cosmic ray (GCR) simulation exposures used the beam line at the NASA Space Radiation Laboratory at Brookhaven National Lab (BNL) and the γ-ray exposures used a ^137Cs source at BNL. Subsequent to single dose irradiation, animals were returned to their cages.
(§4) Galactic cosmic rays (GCR) are heavy ion radiation characteristic of the deep space environment, and the GCR simulation (GCRsim) at BNL mimics the complex radiation environment in space. The GCRsim ions used are described in Table 1 below.
FIGS. 1A-1D represent survival in cohorts where animals were exposed to single dose whole-body γ-rays or not irradiated (Control), and treated or not with GC4419. FIGS. 1A-1B present preliminary results through approximately 400-600 days post-irradiation depending on the cohort. FIGS. 1C-1D present final results. As expected, the survival curves show in the animals not treated with GC4419, trends to survival decreasing with increasing γ-ray dose from unirradiated Control to 0.75 Gy (FIGS. 1B & 1D) to 1.5 Gy (FIGS. 1A & 1C).
FIGS. 2A-2D represent survival in cohorts where animals were exposed to single dose whole-body GCRsim radiation or not irradiated (Control), and treated or not with GC4419. FIGS. 2A-2B present results, including preliminary data for unirradiated animals treated with GC4419 (Control+GC4419) cohort through approximately 400 days post-irradiation. FIGS. 2C-2D present final results for all the presented cohorts. As with γ-rays, the survival curves show in the animals not treated with GC4419, trends to survival decreasing with increasing GCRsim dose from unirradiated control to 0.4 Gy to 0.75 Gy. […] This may reflect that GCRsim is a combination of various radiations of varying carcinogenic potential curves.
FIGS. 3A-3C represent survival in cohorts where unirradiated animals (Control) were treated or not with GC4419. FIG. 3A presents results through approximately 400 days post-irradiation with the range of the y-axis covering 95-100% survival. FIG. 3B-3C present final results with the ranges of the y-axis covering 0-100% and 70-100% survival.

lung masses = assay: incidence of lung masses at necropsy; type: in vivo, mouse (female BALB/c); conditions: for # Lung Masses / % Yield (percentage mice with lung masses): GC4419 24 mg/kg i.p.; for occurrence of lung masses vs untreated / incidence of lung tumors vs untreated: final results (FIG. 4)
Description: as §1, §2, §3, §4
(§5) Pathological endpoints were also considered. Specifically, lung cancer induction, or carcinogenesis, and other tumors that are evident in numbers large enough to consider as secondary endpoints. These endpoints are described in the following tables and figure. The term “masses” is used to describe an abnormal growth, evident by eye, within a given tissue; for example, the term “lung masses” is used to describe abnormal tissues found in the lung that are collected for pathologic examination.
(§6) Given prior experience with the mouse model of radiation-induced carcinogenesis, it is expected that most, if not all, of the lung masses are tumors. For the ovarian masses, some proportion of the masses are expected to be tumors. For observations of hepatosplenomegaly, many of the enlarged livers and spleens may not reflect tumors of those organs. These may, however, may be present as result of hematologic malignancies, such as leukemias, but that was not assessed in this experiment.
Table 2 presents the incidence of lung masses observed at necropsy by treatment cohort, including preliminary data for certain γ-ray cohorts through approximately 600 days post-irradiation and for unirradiated animals treated with GC4419 (Control+GC4419) cohort through approximately 400 days post-irradiation. FIG. 4 presents final results for incidence of lung masses. […] In other words, in part GC4419 could have delayed carcinogenesis.

[1] = system: VEGFr inhibitor-induced pulmonary disease; conditions: rat; cited from earlier work
[2] = system: acute and sub-chronic radiation damage; platinum therapy kidney damage; conditions: mucositis, pulmonary pneumonitis and fibrosis, liver damage; cited from earlier work
hepatosplenomegaly = assay: incidence of hepatosplenomegaly at necropsy; type: in vivo, mouse (female BALB/c); conditions: for # Enlarged (hepatosplenomegaly) / % Yield (percentage of mice with hepatosplenomegaly): GC4419 24 mg/kg i.p.
Description: as §1, §2, §3, §4, §5, §6
Table 4 presents the incidence of hepatosplenomegaly observed at necropsy by treatment cohort, in general through approximately 700 days, for certain γ-ray cohorts through approximately 600 days post-irradiation, and for unirradiated animals treated with GC4419 (Control+GC4419) cohort through approximately 400 days post-irradiation.

oral mucositis = conditions: head-and-neck cancer patients, chemoradiation, Phase IIB; cited from earlier work
established tumors = conditions: cited from earlier work

Compound: [Cl][Mn][Cl].c1cc2nc(c1)CN[C@H]1CCCC[C@@H]1NCCN[C@H]1CCCC[C@@H]1NC2 [GC4419]
- survival vs irradiated untreated (female BALB/c mice; GCRsim 0.4 Gy, 24 mg/kg i.p., final results): neither increases nor decreases survival
- survival vs irradiated untreated (female BALB/c mice; GCRsim 0.75 Gy, 24 mg/kg i.p., final results, p<0.05): statistically significantly increased survival
- survival vs unirradiated untreated (female BALB/c mice; unirradiated (Control), 24 mg/kg i.p., final results, p<0.01 (FIGS. 3A-3C), 24 mg/kg): statistically significantly increased survival; also recorded: appears to increase survival in unirradiated animals
- survival, overall (female BALB/c mice; variety of radiation types and doses): appears to have an effect on survival in animals exposed to a variety of radiation types and doses
- survival vs unirradiated animals not treated with GC4419 (female BALB/c mice; γ-ray 0.75 Gy, 24 mg/kg i.p., final results): equivalent survival to unirradiated animals not treated with GC4419
- survival vs irradiated untreated (female BALB/c mice; γ-ray 0.75 Gy, 24 mg/kg i.p., final results, p<0.01 (FIG. 1D)): statistically significantly increased survival
- survival vs irradiated untreated (female BALB/c mice; γ-ray 1.5 Gy, 24 mg/kg i.p., final results, p<0.05 (FIG. 1C)): statistically significantly increased survival
- # Lung Masses (lung masses; GCRsim 0.4 Gy, 224 mice): 24
- % Yield (percentage mice with lung masses) (lung masses; GCRsim 0.4 Gy, 224 mice, untreated pair 10.0): 10.7%
- # Lung Masses (lung masses; GCRsim 0.75 Gy, 248 mice): 27
- % Yield (percentage mice with lung masses) (lung masses; GCRsim 0.75 Gy, 248 mice, untreated pair 21.0): 10.9%
- occurrence of lung masses vs untreated (lung masses; GCRsim 0.75 Gy, p<0.01): markedly and statistically significantly decreased occurrence of lung masses
- # Lung Masses (lung masses; unirradiated (0 Gy), 235 mice, preliminary, approx. 400 days): 1
- % Yield (percentage mice with lung masses) (lung masses; unirradiated (0 Gy), 235 mice, preliminary, approx. 400 days, untreated pair 10.6): 0.4%
- incidence of lung tumors vs untreated (lung masses; unirradiated (Control)): absence of a clear difference
- # Lung Masses (lung masses; γ-ray 0.75 Gy, 248 mice, preliminary for certain γ-ray cohorts (approx. 600 days)): 15
- % Yield (percentage mice with lung masses) (lung masses; γ-ray 0.75 Gy, 248 mice, preliminary for certain γ-ray cohorts (approx. 600 days), untreated pair 14.7): 6.0%
- occurrence of lung masses vs untreated (lung masses; γ-ray 0.75 Gy, p<0.05): markedly and statistically significantly decreased occurrence of lung masses
- # Lung Masses (lung masses; γ-ray 1.5 Gy, 248 mice, preliminary for certain γ-ray cohorts (approx. 600 days)): 16
- % Yield (percentage mice with lung masses) (lung masses; γ-ray 1.5 Gy, 248 mice, preliminary for certain γ-ray cohorts (approx. 600 days), untreated pair 11.9): 6.5%
- incidence of lung tumors vs untreated (lung masses; γ-ray 1.5 Gy): absence of a clear difference
- pulmonary disease [1]: attenuate VEGFr inhibitor-induced pulmonary disease
- overt acute and sub-chronic radiation damage; platinum therapy kidney damage [2]: reduce overt acute and sub-chronic radiation damage
- # Enlarged (hepatosplenomegaly) (hepatosplenomegaly; GCRsim 0.4 Gy, 224 mice, approx. 700 days): 33
- % Yield (percentage of mice with hepatosplenomegaly) (hepatosplenomegaly; GCRsim 0.4 Gy, 224 mice, approx. 700 days, untreated pair 13.9): 14.7%
- # Enlarged (hepatosplenomegaly) (hepatosplenomegaly; GCRsim 0.75 Gy, 248 mice, approx. 700 days): 36
- % Yield (percentage of mice with hepatosplenomegaly) (hepatosplenomegaly; GCRsim 0.75 Gy, 248 mice, approx. 700 days, untreated pair 7.7): 14.5%
- # Enlarged (hepatosplenomegaly) (hepatosplenomegaly; unirradiated (0 Gy), 235 mice, approx. 400 days): 1
- % Yield (percentage of mice with hepatosplenomegaly) (hepatosplenomegaly; unirradiated (0 Gy), 235 mice, approx. 400 days, untreated pair 5.1): 0.4%
- hepatosplenomegaly incidence vs untreated (hepatosplenomegaly; within paired cohorts): no consistent trend to increased or decreased incidence within paired cohorts
- # Enlarged (hepatosplenomegaly) (hepatosplenomegaly; γ-ray 0.75 Gy, 248 mice, certain γ-ray cohorts approx. 600 days): 9
- % Yield (percentage of mice with hepatosplenomegaly) (hepatosplenomegaly; γ-ray 0.75 Gy, 248 mice, certain γ-ray cohorts approx. 600 days, untreated pair 10.6): 3.6%
- # Enlarged (hepatosplenomegaly) (hepatosplenomegaly; γ-ray 1.5 Gy, 248 mice, certain γ-ray cohorts approx. 600 days): 17
- % Yield (percentage of mice with hepatosplenomegaly) (hepatosplenomegaly; γ-ray 1.5 Gy, 248 mice, certain γ-ray cohorts approx. 600 days, untreated pair 7.5): 6.8%
- oral mucositis (oral mucositis): reduce oral mucositis
- efficacy of radiation and other therapies (established tumors): enhance the efficacy of radiation and other therapies
